According to US20130045991A1, “NEUROPROTECTIVE MODULATION OF NMDA RECEPTOR SUBTYPE ACTIVITIES” (THE UNIVERSITY OF BRITISH COLUMBIA, priority 2005, published 2013):

Key:
[1] = target: T1, extrasynaptic NMDA receptors (Rattus norvegicus, UniProt Q00960); assay: NMDA-induced currents mediated by extrasynaptic NMDA receptors; format: cell-based; conditions: NMDA 200 μM after MK-801/bicuculline block of synaptic receptors; Ro 25-6981 0.5 μM
T1 construct: both NR2A- and NR2B-containing receptor subtypes are expressed in these neurons; endogenous in cells; host or cells: primary cortical neurons from E18 Sprague-Dawley rat embryos, 11-14 DIV
Method: (§1) In contrast to the predominant expression of NR2A-containing receptors at synapses, NR2B-containing receptors are thought to be the predominant NMDA receptor expressed at extrasynaptic sites in mature neurons (Massy et al., 2004; Tovar et al., 2002). […] The selective blockade of synaptic NMDA receptors was achieved by co-application of bicuculline (50 μM) and MK-801 (10 μM) for 10 min. Bicuculline enhances synaptic release of glutamate and thereby selectively activates synaptic NMDA receptors (Hardingham et al., 2002). MK-801, as an irreversible blocker of open NMDA receptor channels (Tovar et al., 2002; Huettner et al., 1988), can only block the bicuculline-activated synaptic NMDA receptors, and cannot block extrasynaptic channels that are not activated during bicuculline application. […] Little recovery was observed one hour following wash-out of the drugs. The currents gated through extrasynaptic NMDA receptors were then induced by application of NMDA (200 μM) via a fast perfusion system after washing out bicuculline and MK-801. […] On average, about 26.6±2.3% (n=5) of total currents gated by extrasynaptic NMDA receptors were mediated by NR2A-containing receptors (FIG. 4Ad).
(§2) Recording of NMDA-induced currents mediated by extrasynaptic NMDA Receptors: Extrasynaptic NMDA receptors were isolated by a specific blockade of synaptic NMDA receptors with NMDA receptor open channel blocker MK-801 as described above. The coverslip with the treated cortical neurons was transferred to a recording chamber for whole-cell patch-clamp recording. Extrasynaptic NMDA receptors in voltage-clamped cortical neurons were activated by NMDA (200 μM) in Mg2+-free ECS using a fast perfusion system (Warner Instruments).

[2] = target: T2, extrasynaptic NMDA receptors (Rattus norvegicus, UniProt Q00959); assay: as above; format: cell-based; conditions: in presence of Ro 25-6981; NVP-AAM077 0.4 μM
T2 construct: both NR2A- and NR2B-containing receptor subtypes are expressed in these neurons; endogenous in cells; host or cells: primary cortical neurons from E18 Sprague-Dawley rat embryos, 11-14 DIV
Method: as §1, §2

[3] = tested on: extrasynaptic NMDA receptors; assay: as above; format: cell-based, rat; conditions: NMDA 200 μM; n=5
Method: as §1, §2

cortical neurons = assay: Staurosporine (STS)-induced neuronal apoptosis; format: cell-based, rat; conditions: co-application of NVP-AAM077 0.4 μM
Excerpt: In alternative aspects of the invention, we have achieved specific activation of NR2A-containing receptors using two different strategies. First, we examined the effect of selective activation of extrasynaptic NR2A-containing receptor activation on neuronal appopotosis induced by staurosporine (STS), a potent apoptosis inducer (Budd et al., 2000). […] The NMDA-induced neuronal protection was indeed mediated by NR2A-containing receptors as it was prevented by co-application of NVP-AAM077 (p<0.001 compared with STS alone).
Dissociated cultures of cortical neurons were prepared from 18-day Sprague-Dawley rat embryos as described previously (Mielke et al., 2005). To obtain mixed cortical cultures enriched with neurons, uridine (10 μM) and 5-Fluor-2′-deoxyuridine (10 μM) were added to the culture medium at 3 DIV and maintained for 48 h, to inhibit non-neuronal cell proliferation, before the cultures were shifted back to the normal culture medium. Mature neurons (11-14 DIV) were used for experiments. To induce neuronal apoptosis, cortical cultures were stimulated with NMDA (50 μM) and glycine (10 μM) for 20 min, or STS (100 nM) for 1 h in Mg2+-free extracellular solution (ECS) containing (mM): 25 HEPES acid, 140 NaCl, 33 glucose, 5.4 KCl and 1.3 CaCl2, with pH 7.35 and osmolarity 320-330 mOsm. […]
To visualize injured neurons, Hoechst-33342 (10 μg/ml) was added to the culture medium 20 h after treatments and incubated for 45 min at 37 °C. Images were taken with a Leica DMIRE2 fluorescence microscope. Quantitative assessment of neuronal apoptosis was performed 20 h following treatments using a Cell Death Detection ELISAPLUS Kit (Roche Applied Science). Absorbance readings were determined using a spectrophotometric microplate reader. […] Data are expressed as the difference in apoptosis relative to control and are expressed as a percentage.

T1 sequence (Q00960 27-1482, other chains not shown): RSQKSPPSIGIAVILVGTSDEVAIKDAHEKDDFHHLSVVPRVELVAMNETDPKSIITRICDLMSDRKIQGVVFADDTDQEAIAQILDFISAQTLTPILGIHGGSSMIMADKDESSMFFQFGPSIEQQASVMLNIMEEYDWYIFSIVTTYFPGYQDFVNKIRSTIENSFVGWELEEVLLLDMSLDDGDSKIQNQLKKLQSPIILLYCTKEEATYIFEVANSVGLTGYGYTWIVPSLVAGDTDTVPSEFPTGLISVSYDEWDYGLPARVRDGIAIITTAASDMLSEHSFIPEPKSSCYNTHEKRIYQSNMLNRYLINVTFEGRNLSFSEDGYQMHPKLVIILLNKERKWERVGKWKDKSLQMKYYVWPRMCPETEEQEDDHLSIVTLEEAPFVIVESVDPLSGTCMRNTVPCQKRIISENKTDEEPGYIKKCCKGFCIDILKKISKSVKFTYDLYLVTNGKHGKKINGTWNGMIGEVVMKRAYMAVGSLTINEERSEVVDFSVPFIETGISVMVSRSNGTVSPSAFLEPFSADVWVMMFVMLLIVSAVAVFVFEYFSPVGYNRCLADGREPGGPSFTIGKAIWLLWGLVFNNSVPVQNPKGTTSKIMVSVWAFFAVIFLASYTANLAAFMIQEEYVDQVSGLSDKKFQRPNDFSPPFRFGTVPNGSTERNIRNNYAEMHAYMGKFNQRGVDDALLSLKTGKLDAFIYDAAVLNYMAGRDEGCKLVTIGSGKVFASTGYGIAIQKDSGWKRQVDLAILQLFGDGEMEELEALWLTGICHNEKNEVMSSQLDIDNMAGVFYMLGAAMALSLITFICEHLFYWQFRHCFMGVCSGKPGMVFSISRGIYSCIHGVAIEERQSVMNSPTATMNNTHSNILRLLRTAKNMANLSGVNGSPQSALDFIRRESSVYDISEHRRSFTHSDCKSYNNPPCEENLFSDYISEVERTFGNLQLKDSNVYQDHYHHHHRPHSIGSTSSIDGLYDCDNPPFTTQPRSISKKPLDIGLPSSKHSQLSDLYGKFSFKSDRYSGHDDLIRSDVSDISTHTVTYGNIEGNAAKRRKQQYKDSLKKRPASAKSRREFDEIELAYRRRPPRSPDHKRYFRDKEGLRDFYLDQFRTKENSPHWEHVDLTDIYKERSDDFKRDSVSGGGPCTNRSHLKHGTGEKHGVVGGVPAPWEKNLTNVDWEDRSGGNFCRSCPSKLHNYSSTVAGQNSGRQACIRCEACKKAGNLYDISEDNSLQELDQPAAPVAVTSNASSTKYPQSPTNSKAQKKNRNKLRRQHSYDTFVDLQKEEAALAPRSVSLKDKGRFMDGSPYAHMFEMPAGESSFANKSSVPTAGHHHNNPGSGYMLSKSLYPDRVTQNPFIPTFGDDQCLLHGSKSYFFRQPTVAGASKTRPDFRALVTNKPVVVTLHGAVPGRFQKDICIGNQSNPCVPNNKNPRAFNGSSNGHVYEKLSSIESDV
T2 sequence (Q00959 23-1464, other chains not shown): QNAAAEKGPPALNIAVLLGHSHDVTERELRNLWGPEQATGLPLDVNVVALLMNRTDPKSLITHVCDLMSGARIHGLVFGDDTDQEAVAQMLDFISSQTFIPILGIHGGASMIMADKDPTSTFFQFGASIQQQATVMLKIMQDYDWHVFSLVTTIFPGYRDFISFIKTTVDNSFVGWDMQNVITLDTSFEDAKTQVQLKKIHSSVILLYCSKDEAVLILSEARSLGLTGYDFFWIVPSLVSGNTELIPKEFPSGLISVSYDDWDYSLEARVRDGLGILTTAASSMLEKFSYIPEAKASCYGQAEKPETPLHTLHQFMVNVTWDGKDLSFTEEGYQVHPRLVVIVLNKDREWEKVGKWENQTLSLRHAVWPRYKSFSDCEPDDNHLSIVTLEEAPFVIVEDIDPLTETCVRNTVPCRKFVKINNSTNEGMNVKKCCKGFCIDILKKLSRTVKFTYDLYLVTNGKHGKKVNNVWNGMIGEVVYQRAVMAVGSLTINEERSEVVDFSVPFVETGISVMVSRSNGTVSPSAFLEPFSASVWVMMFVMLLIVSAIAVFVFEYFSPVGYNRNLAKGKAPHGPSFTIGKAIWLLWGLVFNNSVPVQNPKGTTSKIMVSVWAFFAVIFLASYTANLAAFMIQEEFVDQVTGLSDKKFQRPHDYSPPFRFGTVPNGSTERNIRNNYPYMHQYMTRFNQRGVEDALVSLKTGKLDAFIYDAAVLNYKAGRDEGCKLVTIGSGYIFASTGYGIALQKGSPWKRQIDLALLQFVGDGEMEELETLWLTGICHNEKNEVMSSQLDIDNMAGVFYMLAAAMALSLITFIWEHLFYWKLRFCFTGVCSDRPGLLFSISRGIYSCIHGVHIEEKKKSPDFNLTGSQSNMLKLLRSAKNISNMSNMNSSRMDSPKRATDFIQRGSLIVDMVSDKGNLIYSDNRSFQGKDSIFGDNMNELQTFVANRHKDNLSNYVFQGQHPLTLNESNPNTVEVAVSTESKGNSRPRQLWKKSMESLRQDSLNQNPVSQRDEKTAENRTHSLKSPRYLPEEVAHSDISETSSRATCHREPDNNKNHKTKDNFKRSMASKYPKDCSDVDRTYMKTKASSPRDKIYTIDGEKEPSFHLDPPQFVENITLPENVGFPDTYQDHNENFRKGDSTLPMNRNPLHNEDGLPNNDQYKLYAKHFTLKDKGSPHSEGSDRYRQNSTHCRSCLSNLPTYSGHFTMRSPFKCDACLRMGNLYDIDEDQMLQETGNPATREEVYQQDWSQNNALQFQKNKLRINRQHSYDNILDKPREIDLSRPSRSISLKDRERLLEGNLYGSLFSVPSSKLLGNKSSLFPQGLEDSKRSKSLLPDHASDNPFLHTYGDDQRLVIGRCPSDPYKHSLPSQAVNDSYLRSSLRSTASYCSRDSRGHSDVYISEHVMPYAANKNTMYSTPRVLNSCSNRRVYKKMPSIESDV

Structure (SMILES) | effect on extrasynaptic NMDA receptor-mediated currents [1] | effect on residual, NR2B antagonist-resistant extrasynaptic current [2] | share of total extrasynaptic NMDA receptor currents mediated by NR2A-containing receptors (Ro 25-6981-resistant, NVP-AAM077-blocked) [3] | effect on NMDA-induced protection against STS (cortical neurons)
C[C@@H](CN1CCC(Cc2ccccc2)CC1)[C@@H](O)c1ccc(O)cc1 (relative stereo) [Ro 25-6981, [R-(R*,S*)]-α-(4-Hydroxyphenyl)-β-methyl-4-(phenylmethyl)-1-piperidinepropanol] | largely reduced | – | – | –
C[C@H](NC(c1cccc2[nH]c(=O)c(=O)[nH]c12)P(=O)(O)O)c1ccc(Br)cc1 (stereo partly shown) [NVP-AAM077] | – | virtually completely blocked | about 26.6±2.3% | prevented
